These results are taken from patent US10703757B2, “Compounds and methods for CDK8 modulation and indications therefor” (Plexxikon Inc., priority 2016, dated 2020).

In general, IC50 refers to the midpoint of a concentration-inhibition curve.

Experiment [1] has as its system CDK8 (TCF/LEF luciferase reporter in HCT116 cells). Briefly: Cell based TCF/LEF reporter assay (HCT116+TCF/LEF luciferase). The settings on record: Homo sapiens. In outline: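 Luciferase readout was corrected for viability (CellTiter-Fluor) and scaled between DMSO high and 10 uM CCT251545 low controls, giving IC50 by nonlinear regression. Compounds, serially diluted, were incubated 24 h at 37 °C on HCT116 clones stably expressing a TCF/LEF-driven luciferase reporter.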
In general terms: Reporter assays use an easily measured gene product as a stand-in for the process of interest.

The subject of experiment [2] is CDK8 (phosphorylation of STAT1 at serine 727 in A549 cells). The experiment can be described thus: Cell based Phospho-STAT1 assay (IFNγ-stimulated A549 cells, AlphaLISA). To be noted: Homo sapiens, phospho-STAT1 after IFNγ stimulation. A digest of the protocol:
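A549 cells given serial compound dilutions for 1 h at 37 °C, then stimulated with IFNγ at 10 ng/mL final for 30 min. Lysate STAT1 Ser727 phosphorylation measured by AlphaLISA; % inhibition vs stimulated/unstimulated DMSO controls, IC50 by nonlinear regression.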
Background: Bead proximity is the source of the signal in Alpha formats.

Take `CS(=O)(=O)Nc1ccc2cc(-c3cnn4cccc(C5=CCC(C#N)CC5)c34)ccc2n1` (stereo not shown) [Compound P-0150, N-(6-(4-(4-cyanocyclohex-1-en-1-yl)pyrazolo[1,5-a]pyridin-3-yl)quinolin-2-yl)methanesulfonamide]: the IC50 fell in the range of 0.1 to 100 nM in experiment [1] (HCT-116, 24 h) and 0.1 to 100 nM in experiment [2] (A549, A549 cells).
Turning to `N#CC1CCN(c2c(-c3ccc(OCCOC4CCOCC4)cc3)cnc3[nH]ccc23)CC1` [Compound P-0171], the IC50 lay in the range of 0.1 to 100 nM in experiment [1] (HCT-116, 24 h) and 0.1 to 100 nM in experiment [2] (A549, A549 cells).
In the case of `N#CC1CC=C(c2nccn3ncc(-c4ccc(Cl)cc4)c23)CC1` (stereo not shown) [Compound P-0090, 4-(3-(4-chlorophenyl)pyrazolo[1,5-a]pyrazin-4-yl)cyclohex-3-ene-1-carbonitrile], the IC50 in experiment [1] (HCT-116, 24 h) lay within 0.1 to 100 nM; in experiment [2] (A549, A549 cells) it was 0.1 to 100 nM.
Regarding `CNC(=O)C(C)(C)C#Cc1cccn2ncc(-c3ccc(-c4cnn(C)c4)cc3)c12` [Compound P-0296, N,2,2-trimethyl-4-(3-(4-(1-methyl-1H-pyrazol-4-yl)phenyl)pyrazolo[1,5-a]pyridin-4-yl)but-3-ynamide], the IC50 in experiment [1] (HCT-116, 24 h) lay within 1000 to 10000 nM; in experiment [2] (A549, A549 cells), 100 to 1000 nM.
Taken in the same sequence, the figures for `Cn1cc(-c2ccc(-c3cnn4ccnc(C#CC(C)(C)C(N)=O)c34)cc2)cn1` [Compound P-0003, 2,2-dimethyl-4-(3-(4-(1-methyl-1H-pyrazol-4-yl)phenyl)pyrazolo[1,5-a]pyrazin-4-yl)but-3-ynamide] were 0.1 to 100 nM and 0.1 to 100 nM.
On the same counts, the results for `N#CCCn1cc(-c2ccc(-c3cnn4ccnc(C5=CCC(C#N)CC5)c34)cc2F)cn1` (stereo not shown) [Compound P-0030, 4-(3-(4-(1-(2-cyanoethyl)-1H-pyrazol-4-yl)-3-fluorophenyl)pyrazolo[1,5-a]pyrazin-4-yl)cyclohex-3-ene-1-carbonitrile] are 0.1 to 100 nM and 0.1 to 100 nM.
As to `N#CC1CC=C(c2cccn3ncc(-c4cc5ccccc5s4)c23)CC1` (stereo not shown) [Compound P-0121, 4-(3-(benzo[b]thiophen-2-yl)pyrazolo[1,5-a]pyridin-4-yl)cyclohex-3-ene-1-carbonitrile], the IC50 in experiment [1] (HCT-116, 24 h) was 0.1 to 100 nM; in experiment [2] (A549, A549 cells), 0.1 to 100 nM.
As for `Cn1cc(-c2ccc(-c3cnn4cccc(C5=CCN(C(N)=O)CC5)c34)cc2)cn1` [Compound P-0185, 4-[3-[4-(1-methylpyrazol-4-yl)phenyl]pyrazolo[1,5-a]pyridin-4-yl]-3,6-dihydro-2H-pyridine-1-carboxamide], the IC50 in experiment [1] (HCT-116, 24 h) is 1000 to 10000 nM; in experiment [2] (A549, A549 cells), 100 to 1000 nM.
For `CC(C)(O)Cn1cc(-c2ccc(-c3cnn4ccnc(C5CCC(C#N)CC5)c34)nc2)cn1` (stereo not shown) [Compound P-0458, (1s,4s)-4-(3-(5-(1-(2-hydroxy-2-methylpropyl)-1H-pyrazol-4-yl)pyridin-2-yl)pyrazolo[1,5-a]pyrazin-4-yl)cyclohexane-1-carbonitrile], the IC50 in experiment [1] (HCT-116, 24 h) was 0.1 to 100 nM; in experiment [2] (A549, A549 cells), 0.1 to 100 nM.
Turning to `N#CC1CC=C(c2cccn3ncc(-c4ccc(N5CCOCC5)c(F)c4)c23)CC1` (stereo not shown) [Compound P-0125, 4-(3-(3-fluoro-4-morpholinophenyl)pyrazolo[1,5-a]pyridin-4-yl)cyclohex-3-ene-1-carbonitrile], the IC50 in experiment [1] (HCT-116, 24 h) was in the range of 0.1 to 100 nM; in experiment [2] (A549, A549 cells), 0.1 to 100 nM.
Consider `N#CC1CC=C(c2nccn3ncc(-c4ccc(-c5cn[nH]c5)cc4)c23)CC1` (stereo not shown) [Compound P-0008, 4-(3-(4-(1H-pyrazol-4-yl)phenyl)pyrazolo[1,5-a]pyrazin-4-yl)cyclohex-3-ene-1-carbonitrile], for which the IC50 in experiment [1] (HCT-116, 24 h) was in the range of 0.1 to 100 nM; in experiment [2] (A549, A549 cells) it was 0.1 to 100 nM.
Take `CNC(=O)c1ccc2cc(-c3cnc4[nH]ccc4c3C3=CCC(C#N)CC3)ccc2c1` (stereo not shown) [Compound P-0268, 6-(4-(4-cyanocyclohex-1-en-1-yl)-1H-pyrrolo[2,3-b]pyridin-5-yl)-N-methyl-2-naphthamide]: the IC50 in experiment [1] (HCT-116, 24 h) was in the range of 0.1 to 100 nM; in experiment [2] (A549, A549 cells), 0.1 to 100 nM.
For the molecule `Cc1ccc2cc(-c3cnn4ccnc(C5=CCC(C(N)=O)CC5)c34)ccc2n1` (stereo not shown) [Compound P-0153, 4-(3-(2-methylquinolin-6-yl)pyrazolo[1,5-a]pyrazin-4-yl)cyclohex-3-ene-1-carboxamide], the IC50 was 0.1 to 100 nM in experiment [1] (HCT-116, 24 h) and 0.1 to 100 nM in experiment [2] (A549, A549 cells).
Turning to `N#CC1CCN(c2cccn3ncc(-c4ccc(-c5cnn(C(F)F)c5)cc4)c23)CC1` [Compound P-0415, 1-(3-(4-(1-(difluoromethyl)-1H-pyrazol-4-yl)phenyl)pyrazolo[1,5-a]pyridin-4-yl)piperidine-4-carbonitrile], the IC50 in experiment [1] (HCT-116, 24 h) is 0.1 to 100 nM; in experiment [2] (A549, A549 cells), 0.1 to 100 nM.
Regarding `N#CC1CCC(c2nccn3ncc(-c4ccc(N5CCOCC5)c(F)c4)c23)CC1` (stereo not shown) [Compound P-0101, 4-(3-(3-fluoro-4-morpholinophenyl)pyrazolo[1,5-a]pyrazin-4-yl)cyclohexane-1-carbonitrile], the IC50 in experiment [1] (HCT-116, 24 hours) lay in the range of 100 to 1000 nM; in experiment [2] (A549 cells), 0.1 to 100 nM.
As to `N#CC1CCN(c2cccn3ncc(-c4ccc(S(=O)(=O)N5CCOCC5)cc4)c23)CC1` [Compound P-0255, 1-(3-(4-(morpholino-sulfonyl)phenyl)pyrazolo[1,5-a]pyridin-4-yl)piperidine-4-carbonitrile], the IC50 was 1000 to 10000 nM in experiment [1] (HCT-116, 24 h) and 1000 to 10000 nM in experiment [2] (A549, A549 cells).
As for `CNC(=O)c1ccc2cc(-c3cnc4[nH]ccc4c3N3CCC(F)(C#N)CC3)ccc2c1` [Compound P-0269, 6-(4-(4-cyano-4-fluoropiperidin-1-yl)-1H-pyrrolo[2,3-b]pyridin-5-yl)-N-methyl-2-naphthamide], the IC50 in experiment [1] (HCT-116, 24 h) lay in the range of 100 to 1000 nM; in experiment [2] (A549, A549 cells), 100 to 1000 nM.
`O=C(C1CCC(c2cccn3ncc(-c4ccc(-c5cnn(C(F)F)c5)cc4)c23)CC1)N1CCC1` (stereo not shown) [Compound P-0315, azetidin-1-yl(4-(3-(4-(1-(difluoromethyl)-1H-pyrazol-4-yl)phenyl)pyrazolo[1,5-a]pyridin-4-yl)cyclohexyl)methanone]: the IC50 was in the range of 100 to 1000 nM in experiment [1] (HCT-116, 24 h) and 100 to 1000 nM in experiment [2] (A549, A549 cells).
For the molecule `Cc1nnc(-c2ccc(-c3cnn4cccc(C5CCC(C#N)CC5)c34)cc2)o1` (stereo not shown) [Compound P-0140, 4-(3-(4-(5-methyl-1,3,4-oxadiazol-2-yl)phenyl)pyrazolo[1,5-a]pyridin-4-yl)cyclohexane-1-carbonitrile], the IC50 was 0.1 to 100 nM in experiment [1] (HCT-116, 24 h) and 0.1 to 100 nM in experiment [2] (A549, A549 cells).
For the molecule `N#CC1CCN(c2cccn3ncc(-c4ccc(OCCN5CCOCC5)cc4)c23)CC1` [Compound P-0261, 1-(3-(4-(2-morpholino-ethoxy)phenyl)pyrazolo[1,5-a]pyridin-4-yl)piperidine-4-carbonitrile], the IC50 in experiment [1] (HCT-116, 24 h) was 0.1 to 100 nM; in experiment [2] (A549, A549 cells), 0.1 to 100 nM.
Regarding `CC(C)(C#Cc1nccn2ncc(-c3ccc(-c4cnn(CCC#N)c4)cc3)c12)C(N)=O` [Compound P-0004, 4-(3-(4-(1-(2-cyanoethyl)-1H-pyrazol-4-yl)phenyl)pyrazolo[1,5-a]pyrazin-4-yl)-2,2-dimethylbut-3-ynamide], the IC50 in experiment [1] (HCT-116, 24 h) lay in the range of 0.1 to 100 nM; in experiment [2] (A549, A549 cells), 0.1 to 100 nM.
For `N#CC1CCC(c2nccn3ncc(-c4ccc(OCCOC5CCOCC5)cc4)c23)CC1` (stereo not shown) [Compound P-0058, (1s,4s)-4-(3-(4-(2-((tetrahydro-2H-pyran-4-yl)oxy)ethoxy)phenyl)pyrazolo[1,5-a]pyrazin-4-yl)cyclohexane-1-carbonitrile], the IC50 lay within 0.1 to 100 nM in experiment [1] (HCT-116, 24 h) and 0.1 to 100 nM in experiment [2] (A549, A549 cells).
With `CC(C)(O)C#Cc1cccn2ncc(-c3cnn(-c4cncc(C5CC5)c4)c3)c12` [Compound P-0289, 4-(3-(1-(5-cyclopropylpyridin-3-yl)-1H-pyrazol-4-yl)pyrazolo[1,5-a]pyridin-4-yl)-2-methylbut-3-yn-2-ol], the IC50 was 1000 to 10000 nM in experiment [1] (HCT-116, 24 h) and 1000 to 10000 nM in experiment [2] (A549, A549 cells).
As to `N#CC1CC=C(c2nccn3ncc(-c4ccc(-c5cnn(CC(N)=O)c5)cc4)c23)CC1` (stereo not shown) [Compound P-0027, 2-(4-(4-(4-(4-cyanocyclohex-1-en-1-yl)pyrazolo[1,5-a]pyrazin-3-yl)phenyl)-1H-pyrazol-1-yl)acetamide], the IC50 in experiment [1] (HCT-116, 24 h) is 0.1 to 100 nM; in experiment [2] (A549, A549 cells), 0.1 to 100 nM.
Turning to `N#CC1CCC(c2nccn3ncc(-c4ccc(-n5ccnn5)cc4)c23)CC1` (stereo not shown) [Compound P-0211, 4-(3-(4-(1H-1,2,3-triazol-1-yl)phenyl)pyrazolo[1,5-a]pyrazin-4-yl)cyclohexane-1-carbonitrile], the IC50 lay in the range of 100 to 1000 nM in experiment [1] (HCT-116, 24 h) and 0.1 to 100 nM in experiment [2] (A549, A549 cells).
Take `Cn1cc(C#Cc2cnc3cccc(N4CCC5(CC4)CC(=O)NC5=O)n23)cn1` [Compound P-0238, 8-(3-((1-methyl-1H-pyrazol-4-yl)ethynyl)imidazo[1,2-a]pyridin-5-yl)-2,8-diazaspiro[4.5]decane-1,3-dione]: the IC50 fell in the range of 0.1 to 100 nM in experiment [1] (HCT-116, 24 h) and 0.1 to 100 nM in experiment [2] (A549, A549 cells).
Take `Cc1ccc2cc(-c3cnn4cccc(C#CC(C)(C)O)c34)ccc2n1` [Compound P-0281, 2-methyl-4-(3-(2-methylquinolin-6-yl)pyrazolo[1,5-a]pyridin-4-yl)but-3-yn-2-ol]: the IC50 in experiment [1] (HCT-116, 24 h) fell in the range of 100 to 1000 nM; in experiment [2] (A549, A549 cells), 100 to 1000 nM.
For the molecule `N#CC1CC=C(c2nccn3ncc(-c4ccc(-c5cnn(CC(F)F)c5)cc4)c23)CC1` (stereo not shown) [Compound P-0029, 4-(3-(4-(1-(2,2-difluoroethyl)-1H-pyrazol-4-yl)phenyl)pyrazolo[1,5-a]pyrazin-4-yl)cyclohex-3-ene-1-carbonitrile], the IC50 lay within 0.1 to 100 nM in experiment [1] (HCT-116, 24 h) and 0.1 to 100 nM in experiment [2] (A549, A549 cells).
`N#CC1CC=C(c2nccn3ncc(-c4ccc(OCCCN5CCCCC5)cc4)c23)CC1` (stereo not shown) [Compound P-0086, 4-(3-(4-(3-(piperidin-1-yl)propoxy)phenyl)pyrazolo[1,5-a]pyrazin-4-yl)cyclohex-3-ene-1-carbonitrile]: the IC50 in experiment [1] (HCT-116, 24 h) is 100 to 1000 nM; in experiment [2] (A549, A549 cells), 0.1 to 100 nM.
